For three compounds, MIC results are on record in EP3898610B1, “NOVEL AZA-HEXAPHENE ANTIBIOTIC COMPOUNDS” (Fondazione Istituto Insubrico di Ricerca per la Vita, priority 2018, dated 2020).

Converted amounts (≈) assume the structure as drawn. Some results are limits rather than exact numbers.

Type in all cases: cell-based
The test system of one test is L44 S. pneumoniae. Nature of the test: MIC, broth microdilution (CLSI). The conditions noted are these: Streptococcus pneumoniae. Here is the method:
(§1) Antibacterial activity. […] Each bacterial strain was inoculated with 2-5×10^5 CFU/ml, Candida albicans with 10^4 CFU/ml. Cultures were incubated at 35°C in air. After 18-24 hours visual readings were performed and MICs (Minimal Inhibitory Concentrations) determined. The effect of 30% bovine serum was determined under the same experimental conditions. The strains used were clinical isolates or strains from American Type Culture Collection (ATCC).
On the technique in general: In broth dilution the organism is exposed to a series of concentrations in liquid medium.

The test system of another test is L569 E. faecium VanA. The experiment in a line: MIC, broth microdilution (CLSI). Here is the method: as §1
In a further test the test system is L1400 S. aureus HA-MRSA. Nature of the test: MIC, broth microdilution (CLSI). As to conditions: Staphylococcus aureus, MRSA. On the procedure:
as §1

For a further test, the system named is L1577 S. epidermidis. The experiment in a line: MIC, broth microdilution (CLSI). As to conditions: Staphylococcus epidermidis. Here is the method:
as §1

In test [1] the test system is L1729 S. haemolyticus MDR. The experiment in a line: MIC, broth microdilution (CLSI). The conditions noted are these: Staphylococcus haemolyticus. Here is the method:
as §1

In the next test the test system is L819 S. aureus Smith. The experiment in a line: MIC, broth microdilution (CLSI). The conditions noted are these: Staphylococcus aureus. On the procedure:
as §1

Test [2] has as its system VA80201 S. aureus CA-MRSA. Nature of the test: MIC, broth microdilution (CLSI). The conditions noted are these: Staphylococcus aureus, MRSA. On the procedure:
as §1

For a further test, the system named is L47 E. coli. The experiment in a line: MIC, broth microdilution (CLSI). As to conditions: Escherichia coli. Here is the method: as §1
For a further test, the system named is L568 E. faecium. The experiment in a line: MIC, broth microdilution (CLSI). As to conditions: Enterococcus faecium. On the procedure: as §1
Another test has as its system L3294 M. catarrhalis. Nature of the test: MIC, broth microdilution (CLSI). The conditions noted are these: Moraxella catarrhalis. Here is the method: as §1
Test [3] relates to L4061 S. aureus MRSA - GISA. Nature of the test: MIC, broth microdilution (CLSI). As to conditions: Staphylococcus aureus, MRSA. On the procedure: as §1
Test [4] deals with VA8101 S. agalactiae (Group B). The experiment in a line: MIC, broth microdilution (CLSI). As to conditions: Streptococcus agalactiae. On the procedure: as §1
The next test relates to L1730 S. haemolyticus. The experiment in a line: MIC, broth microdilution (CLSI). Here is the method:
as §1

The subject of the next test is L559 E. faecalis. Nature of the test: MIC, broth microdilution (CLSI). As to conditions: Enterococcus faecalis. On the procedure:
as §1

The test system of another test is L100 S. aureus ATCC6538P. Nature of the test: MIC, broth microdilution (CLSI). As to conditions: Staphylococcus aureus, ATCC6538P. On the procedure: as §1
For the next test, the system named is L49 S. pyogenes C203. Nature of the test: MIC, broth microdilution (CLSI). The conditions noted are these: Streptococcus pyogenes. On the procedure: as §1
The next test has as its system L560 E. faecalis VanA. Nature of the test: MIC, broth microdilution (CLSI). The conditions noted are these: Enterococcus faecalis. Here is the method: as §1
Test [5] concerns L4187 E. faecium VanA - Lnz R - Cpx R. Nature of the test: microbe, parasite or virus in culture. As to conditions: Enterococcus faecium. On the procedure:
as §1

The test system of a further test is L145 C. albicans. The experiment in a line: MIC, broth microdilution (CLSI). The conditions noted are these: Candida albicans. Here is the method: Antibacterial activity. The antimicrobial activity of the antibiotic 103/33-F710 was determined by the broth microdilution method according to the procedures published by the Clinical and Laboratory Standards Institute (CLSI), formerly the National Committee for Clinical Laboratory Standards (NCCLS) (document M07-A9). Microorganisms were grown in either cation-adjusted Mueller Hinton Broth (Staphylococci, Enterococci, Moraxella catarrhalis, Escherichia coli), Todd Hewitt medium (Streptococci) or RPMI 1640 medium for Candida albicans on 96-well microtiter plates. Each bacterial strain was inoculated with 2-5×10^5 CFU/ml, Candida albicans with 10^4 CFU/ml. Cultures were incubated at 35°C in air. After 18-24 hours visual readings were performed and MICs (Minimal Inhibitory Concentrations) determined. The effect of 30% bovine serum was determined under the same experimental conditions. The strains used were clinical isolates or strains from American Type Culture Collection (ATCC). The antibiotic 103/33-F710 was dissolved in DMSO to obtain a 1000 µg/ml stock solution, and subsequently diluted in water to obtain working solution. Table 5: Antimicrobial activity reported as MIC (µg/ml) of ID103/33-F710
Antibacterial activity. The antimicrobial activity of the antibiotic 103/33-F696 was determined by the broth microdilution method according to the procedures disclosed in Example 7. Table 6: Antimicrobial activity reported as MIC (µg/ml) of compound 2 (103/33-F696)
Antibacterial activity. The antimicrobial activity of the antibiotic 103/33-F712 was determined by the broth microdilution method according to the procedures disclosed in Example 7. Table 7: Antimicrobial activity reported as MIC (µg/ml) of ID103/33-F712

As to `CN[C@H](CC(C)C)C(=O)N[C@H]1C(=O)N[C@@H](CC(N)=O)C(=O)N[C@H]2C(=O)N[C@H]3C(=O)N[C@H](C(=O)N[C@H](C(=O)O)c4cc(O)cc(O)c4-c4cc3ccc4O)[C@H](O)c3ccc(c(Cl)c3)Oc3cc2cc(c3O[C@@H]2O[C@H](CO)[C@@H](O)[C@H](O)[C@H]2O[C@H]2C[C@](C)(N)[C@H](O)[C@H](C)O2)Oc2ccc(cc2Cl)[C@H]1O` [Vancomycin, reference compound], the MIC against L44 S. pneumoniae is 0.5 µg/mL (≈ 0.345 µM); in the test with L569 E. faecium VanA (Enterococcus faecium), over 128 µg/mL; in the test with L569 E. faecium VanA (L569 E. faecium VanA 30 % SB (30% bovine serum)), over 128 µg/mL; with L1400 S. aureus HA-MRSA, 1 µg/mL (≈ 0.69 µM); with L1577 S. epidermidis, 1 µg/mL (≈ 0.69 µM); in test [1], 2 µg/mL (≈ 1.38 µM). Further, the MIC in the test on L819 S. aureus Smith was 1 µg/mL (≈ 0.69 µM); in test [2], 1 µg/mL (≈ 0.69 µM); with L47 E. coli, over 128 µg/mL; in the test with L568 E. faecium, 2 µg/mL (≈ 1.38 µM); with L3294 M. catarrhalis, 16 µg/mL (≈ 11 µM); in test [3] it was 4 µg/mL (≈ 2.76 µM). In addition, the MIC in test [4] is 0.5 µg/mL (≈ 0.345 µM); against L1730 S. haemolyticus (L1730 S. haemolyticus, cation-adjusted Mueller Hinton Broth, 35°C, 18-24 hours) it was 0.5 µg/mL (≈ 0.345 µM); in the test with L1730 S. haemolyticus (Staphylococcus haemolyticus, L1730 S. haemolyticus, cation-adjusted Mueller Hinton Broth, 35°C, 18-24 hours) it was 1 µg/mL (≈ 0.69 µM); with L559 E. faecalis, 0.5 µg/mL (≈ 0.345 µM); against L100 S. aureus ATCC6538P, 1 µg/mL (≈ 0.69 µM); in the test with L49 S. pyogenes C203 it was 0.5 µg/mL (≈ 0.345 µM). In addition, the MIC (against L560 E. faecalis VanA; in test [5]) was over 128 µg/mL in each case.
Regarding `C[C@@H]1[C@H](O)[C@@H](C)/C=C/C=C/C=C/C=C/C=C/C=C/C=C/[C@H](O[C@@H]2O[C@H](C)[C@@H](O)[C@H](N)[C@@H]2O)C[C@@H]2O[C@](O)(C[C@@H](O)C[C@@H](O)[C@H](O)CC[C@@H](O)C[C@@H](O)CC(=O)O[C@H]1C)C[C@H](O)[C@H]2C(=O)O` [amphotericin B, reference compound], the MIC against L145 C. albicans was 0.5 µg/mL (≈ 0.541 µM).
For `COc1c(OC)c2c(=O)c3cc(C)n(C(CC4CN(C)C(=N)N4)C(=O)O)c(=O)c3c(=O)c2c2cc3c(=O)c4cc(O)cc(O)c4c(=O)c3c(O)c12` (stereo not drawn) [compound 2, 2-(8,10,12-Trihydroxy-6,7-dimethoxy-3-methyl-1,5,9,14,16-pentaoxo-5,9,14,16-tetrahydro-1H-2-aza-hexaphen-2-yl)-3-(2-imino-1-methyl-imidazolidin-4-yl)-propionic acid], the MIC stood at 32 µg/mL (≈ 45.9 µM) with L44 S. pneumoniae; 0.5 µg/mL (≈ 0.718 µM) against L569 E. faecium VanA (Enterococcus faecium); 0.03 µg/mL (≈ 0.0431 µM) with L1400 S. aureus HA-MRSA; 0.03 µg/mL (≈ 0.0431 µM) with L1577 S. epidermidis; 0.06 µg/mL (≈ 0.0861 µM) in [1]; 0.015 µg/mL (≈ 0.0215 µM) against L819 S. aureus Smith. For the same compound, the MIC against L47 E. coli was over 512 µg/mL; in the test on L568 E. faecium, 0.125 µg/mL (≈ 0.179 µM); with L3294 M. catarrhalis, 64 µg/mL (≈ 91.9 µM); with L1730 S. haemolyticus (Staphylococcus haemolyticus) it was 0.03 µg/mL (≈ 0.0431 µM); with L559 E. faecalis, 0.03 µg/mL (≈ 0.0431 µM); in the test on L100 S. aureus ATCC6538P, 0.03 µg/mL (≈ 0.0431 µM). Moreover, the figures for the MIC in the test with L49 S. pyogenes C203, in the test on L560 E. faecalis VanA and against L145 C. albicans were 1 µg/mL (≈ 1.44 µM), 0.03 µg/mL (≈ 0.0431 µM) and over 512 µg/mL, respectively.
